# Values of other authors in US20150125548A1, “COMBINATION NUTRITIONAL AND NUTRACEUTICAL PRODUCTS” (Requis Pharmaceuticals Inc., priority 2011, published 2015).
# Legend:
# [1] = target: tryptophan hydroxylase (Mus musculus, UniProt Q8CGV2); conditions: 10 mM magnesium chloride added together with 1 mM ATP; 100,000 g supernatant from mouse midbrain
# [2] = after absorption
# tryptophan hydroxylase, sequence (Q8CGV2 whole entry): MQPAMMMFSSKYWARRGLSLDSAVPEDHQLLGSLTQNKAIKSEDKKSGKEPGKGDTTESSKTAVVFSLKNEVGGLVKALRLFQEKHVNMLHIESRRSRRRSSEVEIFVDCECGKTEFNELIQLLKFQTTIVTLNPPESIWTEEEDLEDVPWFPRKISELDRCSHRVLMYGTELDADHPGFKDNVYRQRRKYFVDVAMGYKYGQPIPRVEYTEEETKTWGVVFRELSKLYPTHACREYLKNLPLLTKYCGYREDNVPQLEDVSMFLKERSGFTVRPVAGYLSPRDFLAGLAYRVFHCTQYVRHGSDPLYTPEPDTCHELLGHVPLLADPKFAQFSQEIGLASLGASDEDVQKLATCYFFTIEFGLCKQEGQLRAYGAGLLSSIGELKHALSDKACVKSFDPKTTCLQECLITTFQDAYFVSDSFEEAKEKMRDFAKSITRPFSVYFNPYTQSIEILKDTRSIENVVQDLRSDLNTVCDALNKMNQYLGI
SMILES,increase of enzyme activity above control [1],fraction present in blood as the free amino acid (rest bound to plasma proteins) [2]
[Cl-].[Cl-].[Mg+2] [magnesium chloride],50-70%,
"N[C@@H](Cc1c[nH]c2ccccc12)C(=O)O [tryptophan, (2S)-2-amino-3-(1H-indol-3-yl)propanoic acid]",,around 20%
